Where two headings read alike, the source gives them in different places.
Tests used:
[1] = biological target: T1, GAK (Homo sapiens, UniProt O14976); experiment: Kinobeads two-dose competition binding: GAK; settings: for CATDS: target GAK
T1 construct: endogenous in cells
T1 sequence (O14976 1-1311): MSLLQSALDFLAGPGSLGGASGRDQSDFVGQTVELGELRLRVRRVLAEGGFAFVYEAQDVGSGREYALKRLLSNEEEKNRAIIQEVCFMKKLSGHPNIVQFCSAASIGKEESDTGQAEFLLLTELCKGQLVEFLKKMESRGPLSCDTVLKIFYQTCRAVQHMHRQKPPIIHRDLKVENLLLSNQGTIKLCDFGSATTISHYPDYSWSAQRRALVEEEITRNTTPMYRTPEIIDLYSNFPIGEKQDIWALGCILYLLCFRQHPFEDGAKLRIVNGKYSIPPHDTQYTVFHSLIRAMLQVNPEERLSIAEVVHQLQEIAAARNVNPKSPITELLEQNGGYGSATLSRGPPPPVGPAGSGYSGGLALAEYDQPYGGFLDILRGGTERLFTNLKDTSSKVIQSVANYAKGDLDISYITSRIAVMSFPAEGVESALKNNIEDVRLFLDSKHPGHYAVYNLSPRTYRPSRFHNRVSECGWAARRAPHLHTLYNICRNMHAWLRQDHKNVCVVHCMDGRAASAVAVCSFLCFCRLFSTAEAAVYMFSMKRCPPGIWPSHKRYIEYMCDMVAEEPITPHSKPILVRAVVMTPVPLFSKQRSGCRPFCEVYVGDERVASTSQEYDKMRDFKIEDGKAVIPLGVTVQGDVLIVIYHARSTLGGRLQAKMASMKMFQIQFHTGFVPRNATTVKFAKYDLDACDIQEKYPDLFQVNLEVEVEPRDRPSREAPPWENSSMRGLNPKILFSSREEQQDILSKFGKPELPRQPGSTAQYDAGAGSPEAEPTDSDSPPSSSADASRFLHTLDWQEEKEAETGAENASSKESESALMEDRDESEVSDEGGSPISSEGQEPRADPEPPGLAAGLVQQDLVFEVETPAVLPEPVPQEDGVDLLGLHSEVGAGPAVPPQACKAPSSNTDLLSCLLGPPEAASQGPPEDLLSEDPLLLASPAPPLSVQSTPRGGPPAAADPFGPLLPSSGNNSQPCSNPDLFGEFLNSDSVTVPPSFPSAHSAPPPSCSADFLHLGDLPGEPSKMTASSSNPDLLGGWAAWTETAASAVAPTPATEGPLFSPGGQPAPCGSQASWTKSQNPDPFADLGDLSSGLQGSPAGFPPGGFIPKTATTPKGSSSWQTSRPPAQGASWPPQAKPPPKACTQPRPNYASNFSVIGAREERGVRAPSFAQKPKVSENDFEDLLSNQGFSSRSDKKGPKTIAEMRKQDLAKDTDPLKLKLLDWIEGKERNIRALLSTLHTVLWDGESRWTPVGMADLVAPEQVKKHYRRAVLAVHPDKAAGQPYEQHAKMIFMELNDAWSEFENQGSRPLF
Source text: (§1) Briefly, Kinobeads comprise seven broad-spectrum small molecule kinase inhibitors immobilized on Sepharose beads. […]. Compounds of interest are set to compete for target protein binding with Kinobeads in the lysate and the amount of a given protein bound to Kinobeads in the presence of a compound can be quantified relative to a dimethylsulfoxide (DMSO) vehicle control by label-free mass spectrometry. This assay measures the physical interaction of a compound with thousands of endogenous proteins in parallel and, when systematically increasing the concentration of competitor, enables the calculation of an apparent interaction constant ( Kdapp ) for each compound and protein.
(§2) Kinobeads pulldown experiments were performed as described previously[13],[14],[17] with minor modification. […] The protein concentration was adjusted to 5 mg ml^−1. Kinase inhibitors were spiked into 0.5 ml of cell lysate at final concentrations of 100 and 1,000 nM (or DMSO, 0.3, 1, 3, 10, 30, 100, 300 and 1,000 nM for full dose experiments). […] Lysates were incubated for 45 min at 4 °C. Subsequently, lysates were incubated with Kinobeads ε (17.5 µl of settled beads) for 30 min at 4 °C. To assess the degree of protein depletion from the lysates by Kinobeads, the flow through of the DMSO control was recovered for a pulldown of pulldown experiment where the lysate was incubated a second time with fresh Kinobeads. Beads were washed in three steps with buffer containing 0.4%, 0.2% and no IGEPAL. Bound proteins were reduced with 50 mM DTT in 8 M Urea, 40 mM Tris-HCl pH 7.4 for 30 min at room temperature. After alkylation with 55 mM chloroacetamide, the urea concentration was reduced to 1–2 M and proteins were digested with trypsin. Acidified peptides were desalted and concentrated using SepPak tC18 µEluation plates (Waters). Samples were frozen, dried by vacuum centrifugation and stored at −20 °C.
(§3) Each kinase inhibitor was processed together with all DMSO controls of the same plate. Additionally, each search was supplemented with five high quality DMSO controls for consistent peptide identification and protein grouping. The resultant file (proteinGroups.txt) was used for subsequent filtering, normalization, data visualization and target annotation that was automatically performed by a data processing pipeline built in house that used R (including the ‘drc’ and ‘heatmap’ packages). First, reverse hits, potential contaminants and not quantified proteins in the DMSO control samples were discarded. Protein raw and label-free quantification intensities were normalized to the median DMSO control intensity to obtain relative residual binding intensities for each protein group at every inhibitor concentration and standard deviations of the DMSO control intensity were calculated. IC50 values were estimated based on the following equation IC50=I×100−inhibition/inhibition where [I] is the inhibitor concentration that was used for IC50 calculation and ‘inhibition’ the relative residual binding intensity. […]. Estimated Kdapp values were then calculated by multiplying the estimated IC50 values with a protein-dependent correction factor that was limited to a maximum value of one. The correction factor accounts for the depletion of a target protein from the lysate by Kinobeads. The depletion can be measured by the ratio of the amount of protein captured in two consecutive pulldowns of the same DMSO control lysate. In this study, correction factors were determined in separate experiments using the same lysate mixture and the same bead batch. Correction factors were set to the median of all correction factors. Targets of kinase inhibitors were annotated using the previously published random forest classifier. A training data set was annotated manually. […]

[2] = biological target: CSNK2A2 (Homo sapiens, UniProt P19784); experiment: Kinobeads two-dose competition binding: CSNK2A2; set-up: to maximize the representation of endogenous proteins; endogenous in cells; settings: for CATDS: target CSNK2A2
Source text: as §1, §2, §3

Row | Compound | CATDS [1] | CATDS [2] | further results
1 | Nc1ncnc2[nH]c(-c3ccccc3)nc12 [AH5015_KCGS] | 0.09213 | 0 | potency estimated from few doses ([2]; Kinobeads two-dose screen (binding), read-out: Kdapp CSNK2A2): > 1000 nM
2 | CCN1CCN(Cc2ccc(Nc3ncc(F)c(-c4cc(F)c5nc(C)n(C(C)C)c5c4)n3)nc2)CC1 [Abemaciclib] | 0 | 0.06221 | 
3 | CN(C)C/C=C/C(=O)Nc1cc2c(Nc3ccc(F)c(Cl)c3)ncnc2cc1O[C@H]1CCOC1 [Afatinib] | 0 | 0 | 
4 | CCc1cc2c(cc1N1CCC(N3CCOCC3)CC1)C(C)(C)c1[nH]c3cc(C#N)ccc3c1C2=O [Alectinib] | 0.6004 | 0 | 
5 | N#CC1(c2ccc(NC(=O)c3cccnc3NCc3ccncc3)cc2)CCCC1 [Apatinib] | 0 | 0 | 
6 | C#Cc1cccc(Nc2ncnc3cc(OC)c(OC4CCN(C)CC4)cc23)c1 [BI00007366] |  |  | potency estimated from few doses ([1]; Kinobeads two-dose, Drugmatrix - all 2, read-out: apparent Kd GAK): 634 nM
7 | COc1cc(Nc2ncc3c(C)nc(-c4cc5ccccc5[nH]4)n3n2)cc(OC)c1OC [GW869516X] |  |  | potency estimated from few doses ([2]; CSNK2A2, read-out: Kinobeads Data): 56 nM
8 | C[C@]12O[C@H](C[C@]1(O)CO)n1c3ccccc3c3c4c(c5c6ccccc6n2c5c31)CNC4=O [Lestaurtinib] |  |  | potency estimated from few doses ([1]; read-out: Lestaurtinib Drugmatrix value, Gene Name GAK): 577 nM; potency estimated from few doses ([2]; read-out: Lestaurtinib Drugmatrix value, Gene Name CSNK2A2): 415 nM
